Assay results reported in ChEMBL document CHEMBL5136986, “DYRK1A inhibitors for disease therapy: Current status and perspectives” (Eur J Med Chem, 2022).
pIC50: −log10 of the molar value. One block for each molecule: values may come before it.

Assays:
[1] = target: T1, Dual specificity tyrosine-phosphorylation-regulated kinase 1A (Homo sapiens, UniProt Q13627); assay: Inhibition of N-terminal 6His-tagged recombinant human DYRK1A ([…] residues) expressed in Escherichia coli BL21(DE3) using RARPGTPALRE as substrate incubated for 60 mins in presence of ATP/NADH by enzymatic assay
[2] = target: T1, Dual specificity tyrosine-phosphorylation-regulated kinase 1A; assay: Inhibition of DYRK1A (unknown origin)
[3] = Displacement of [gamma-33P]-ATP from GSK-3 derived from porcine brain using YRRAAVPPSPSLSRHSSPHQSpEDEEE as substrate incubated for 30 mins by scintillation counting analysis; design: species or system Sus scrofa
[4] = target: T1, Dual specificity tyrosine-phosphorylation-regulated kinase 1A; assay: Inhibition of GST-fused recombinant human DYRK1A expressed in Escherichia coli using KKISGRLSPIMTEQ as substrate in presence of ATP
[5] = target: T1, Dual specificity tyrosine-phosphorylation-regulated kinase 1A; assay: Inhibition of DYRK1A (unknown origin) using KKISGRLSPIMTEQ as substrate incubated for 30 mins in presence of ATP by ADP-Glo assay

Structure (SMILES): COc1c(CC=C(C)C)c(O)cc2oc(-c3ccc(O)cc3O)cc12 [LICOCOUMARONE]
- pIC50 [1]: 4.90

Structure (SMILES): Nc1ncc(-c2ccccc2F)nc1C(=O)Nc1cnccc1N1CCC(C(=O)O)CC1
- pIC50 [2]: 6.61

Structure (SMILES): O=c1c2c(ccc3nc(-c4cccnc4)sc32)ncn1C1CC1
- pIC50 [3]: 7.17

Structure (SMILES): O=c1c2c(ccc3nc(-c4cnccn4)sc32)ncn1Cc1ccccc1
- pIC50 [4]: 6.95
- pIC50 [3]: 5.22

Structure (SMILES): O=c1c2c(ccc3nc(-c4cccnc4)sc32)ncn1Cc1ccccc1
- pIC50 [3]: 5.43

Now from value to molecule:

- pIC50 [5]: < 5.00
Structure (SMILES): O=C1c2c([nH]c3c(Cl)cccc23)CCC1N1CCCCC1 (centres undefined)

- pIC50 [2]: 7.41
Structure (SMILES): Nc1ncc(-c2ccccc2)nc1C(=O)Nc1cnccc1N1CCC(N)CC1

- pIC50 [5]: 5.80
Structure (SMILES): O=C1CCCc2[nH]c3c(Cl)cccc3c21
